Nine molecules from patent publication US20230142274A1 (SIMCERE PHARMACEUTICAL CO., LTD., priority 2020, published 2023) can be followed below.

Where two headings read alike, the source gives them in different places.

This data set can be described thus: Pharmacokinetic experiment in mouse. To be noted: female CB17-SCID mice; for half-life: mouse, plasma, read-out: Drug Elimination Half-life (converted). It counts as in vivo. The text has this:
CB17-SCID mice were purchased from Beijing Vital River Laboratory Animal Technology Co., Ltd.
DMSO, HP-β-CD (hydroxypropyl-β-cyclodextrin), PEG400 (polyethylene glycol 400), and Vitamin E TPGS (D-α-tocopherol polyethylene glycol 1000 succinate) were purchased from Sigma.
Six female CB17-SCID mice (20 g to 30 g, aged 4 to 6 weeks) were divided randomly into two groups, with 3 mice in each group. In Group 1, the compound in a vehicle of an aqueous solution containing 5% dimethyl sulfoxide and 95% hydroxypropyl-β-cyclodextrin (10%, w/v) was administered by intravenous injection via tail vein. In Group 2, a corresponding dose of the compound in a vehicle of an aqueous solution containing 30% polyethylene glycol 400 and 70% D-α-tocopherol polyethylene glycol 1000 succinate (10%, w/v) was orally administered. The animals were fed normally with food and water before experiment. The mice in each group underwent intravenous blood collection before administration and at 0.083 h (intravenous injection group only), 0.25 h, 0.5 h, 1 h, 2 h, 4 h, 6 h, 8 h, and 24 h after administration. The collected whole blood samples were placed in K2EDTA anticoagulation tubes and centrifuged for 5 min (4000 rpm, 4° C.) to collect the plasma for testing.
10 μL of the mouse plasma sample was taken, and 150 μL of acetonitrile solvent (containing the internal standard compound) was added to precipitate protein. After the resultant was vortexed for 0.5 min and centrifuged (4700 rpm, 4° C.) for 15 min, the supernatant was subjected to 2-fold dilution with water containing 0.05% (v/v) FA and was then subjected to quantitative measurement in LC-MS/MS system (AB Sciex Triple Quad 6500+). A calibration standard curve was prepared in CB17-SCID mouse plasma along with quality control samples to determine the plasma concentration. As for a 10× diluted sample, 2 μL of sample was taken and 18 μL of blank plasma was added. After being vortexed for 0.5 min, the mixture was added with 300 μL of acetonitrile solvent (containing the internal standard compound) so as to precipitate protein. The rest of the processing steps were the same as those for the undiluted samples.

The half-life is the time needed for the level to fall by half in the phase considered.

Take `CC(C)OC(=O)Nc1ccc(-c2cnc([C@H]3CC[C@H](NC(=O)OC(C)C)CC3)s2)c(P(C)(C)=O)c1` [Example 1, isopropyl trans-N-[3-dimethylphosphoryl-4-[2-[4-(isopropoxycarbonylamino)cyclohexyl]thiazol-5-yl]phenyl]carbamate]: for the setting “oral dose 80 mg/kg”, the “Drug Exposure” value worked out at 211.819 µg·h/mL, the “Max. Drug Conc.” value was determined as 14640 ng/mL, the “Peak Time of Drug Conc.” value turned out to be 2.3 h and the half-life was 3.7 h.
Take `COc1ccc(-c2ccc(-c3cnc([C@H]4CC[C@H](NC(=O)OC(C)C)CC4)s3)c([S@@](=N)(=O)C3CC3)c2)cn1` (stereo in doubt) [Example 94]: under “oral dose 25 mg/kg”, the “Drug Elimination Half-life” value was found to be 3.5 h, the “Drug Exposure” value amounted to 125.779 µg·h/mL, the “Max. Drug Conc.” value was found to be 19257 ng/mL and the “Peak Time of Drug Conc.” value came to 1.3 h.
`Cc1cc(Nc2ccc(-c3cnc([C@H]4CC[C@H](NC(=O)OC(C)C)CC4)s3)c(S(=O)(=O)C3COC3)c2)n[nH]1` [Example 92, isopropyl trans-N-[4-[5-[4-[(5-methyl-1H-pyrazol-3-yl)amino]-2-(oxetan-3-ylsulfonyl)phenyl]thiazol-2-yl]cyclohexyl]carbamate]: for the setting “oral dose 25 mg/kg”, the “Drug Exposure” value worked out at 40.08 µg·h/mL, the “Max. Drug Conc.” value was found to be 8038 ng/mL, the “Peak Time of Drug Conc.” value is 1 h and the half-life is 3.6 h.
For `CC(C)OC(=O)Nc1ccc(-c2cnc(C3CCC(NC(=O)OC(C)C)CC3)s2)c(S(=N)(=O)C(C)C)c1` (stereo not drawn) [Example 3, isopropyl trans-N-[4-[2-[4-(isopropoxycarbonylamino)cyclohexyl]thiazol-5-yl]-3-(isopropylsulfonimidoyl)phenyl]carbamate], for the setting “oral dose 80 mg/kg”, the “Drug Exposure” value was determined as 271.377 µg·h/mL, the “Max. Drug Conc.” value was 15438 ng/mL, the “Peak Time of Drug Conc.” value was determined as 2.8 h and the half-life was 32 h.
For the molecule `CC(C)OC(=O)N[C@H]1CC[C@H](c2ncc(-c3ccc(Nc4cn(C)nn4)cc3S(=N)(=O)C3CC3)s2)CC1` (stereo partly drawn) [Example 54], for the setting “oral dose 25 mg/kg”, the “Drug Exposure” value came out at 47.683 µg·h/mL, the “Max. Drug Conc.” value was found to be 6698 ng/mL, the “Peak Time of Drug Conc.” value was 1 h and the half-life is 3.1 h.
On the same counts, the results for `CC(C)OC(=O)Nc1ccc(-c2cnc([C@H]3CC[C@H](NC(=O)OC(C)C)CC3)s2)c(S(=N)(=O)C2CC2)c1` (stereo partly drawn) [Example 68, isopropyl trans-N-[3-(cyclopropylsulfonimidoyl)-4-[2-[4-(isopropoxycarbonylamino)cyclohexyl]thiazol-5-yl]phenyl]carbamate] are 156.699 µg·h/mL, 14798 ng/mL, 1.3 h and 5 h.
On the same counts, the results for `CC(C)OC(=O)NC1CCC(c2ncc(-c3ccc(Nc4ccc(F)cn4)cc3S(=N)(=O)C3CC3)s2)CC1` (stereo not drawn) [Example 81, isopropyl trans-N-[4-[5-[2-(cyclopropylsulfonimidoyl)]-4-[(5-fluoro-2-pyridyl)amino]phenyl]thiazol-2-yl]cyclohexyl]carbamate] are 223.309 µg·h/mL, 13563 ng/mL, 5 h and 10 h.
For `Cc1cc(Nc2ccc(-c3cnc(C4CCC(NC(=O)OC(C)C)CC4)s3)c(S(=N)(=O)C3CC3)c2)n[nH]1` (stereo not drawn) [Example 50, isopropyl trans-N-[4-[5-[2-(cyclopropylsulfonimidoyl)-4-]((5-methyl-1H-pyrazol-3-yl)amino]phenyl]thiazol-2-yl]cyclohexyl]carbamate] the same measures were 18.187 µg·h/mL, 4076 ng/mL, 1 h and 4.7 h.
For `Cc1cc(Nc2ccc(-c3cnc([C@H]4CC[C@H](NC(=O)OC(C)C)CC4)s3)c(S(=O)(=O)C3CC3)c2)n[nH]1` [Example 48, isopropyl trans-(4-(5-(2-(cyclopropylsulfonyl)-4-((5-methyl-1H-pyrazol-3-yl)amino)phenyl)thiazol-2-yl)cyclohexyl)carbamate], where the note is “oral dose 30 mg/kg”, the “Drug Exposure” value worked out at 203.497 µg·h/mL, the “Max. Drug Conc.” value came to 17657 ng/mL, the “Peak Time of Drug Conc.” value was 2 h and the half-life was 7.6 h.
